Laboratory results published in patent US12138266B2, “Folate preparations” (APROFOL AG, priority 2018, dated 2024).

Experiments:
[1] = tested on: primary keratinocytes of human skin; conditions: keratinocyte monolayer, MTT, 24 h; concentration based on the undiluted solution (2.5%) or the cream (=100%)
Method: In a preliminary experiment, the usable dose was determined.
For this test, the keratinocytes were seeded on 96-well plates and incubated with five dilutions of the solutions or the cream for 24 h. Subsequently, a vital dye was added and finally, the colour change caused by the conversion of the vital dye in living cells was photometrically quantified.
FIG. 1 and FIG. 2 show the determination of the usable dosage of the test substances. Cytotoxicity test with keratinocytes in monolayer culture after conversion of the vital dye MTT by living cells. The concentration data are based on the undiluted solutions or the cream (=100%). Treatment time=24 h. Untreated cultures served as negative controls. SDS served as a positive control (“dead control”). N=6+SEM
IC70 values were calculated by nonlinear regression (Hill Slope, GraphPad Prism 5.04). The term IC70 denotes the concentration at which the viability of the treated cell culture is reduced to 70% of the untreated control. IC70 is often referred to as the border between toxicity and non-toxic effect.

[2] = tested on: reconstructed skin models (epiCS); experiment: Bioavailability: transport through reconstructed skin models into basal compartment (LC/MS); assay type: in vitro ADME, human
From the text: In order to test the bioavailability in tissues such as skin, reconstructed skin models (epiCS, CS-1001, CellSystems, Troisdorf) were used which are generated from primary human keratinocytes. These models show a barrier very similar to human skin. They are regularly used as test models for the approval-relevant determination of corrosive or irritating effects of cosmetic raw materials. The skin models can usually be treated with finished products, as they are intended for use by the consumer. Nevertheless, before the skin models are treated with the test products, an assessment of the tolerability of the models is made to avoid overdosing.
The skin models were cultured on a porous membrane as mentioned above. The skin cells growing on it separate an apical compartment (with the skin model) from a basal compartment (with the nutrient medium). Mass transport from the apical to the basal compartment is thus almost exclusively possible through the cells. The only alternative to this is paracellular diffusion, which however, due to the functional tight junctions, is only possible for a few molecules and to a very limited extent. To determine the bioavailability of the products, the barrier is checked for leaks before use by means of resistance measurements. […] Suitable skin models are then treated topically with the test products. After 4 h, 8 h and 24 h, samples of the medium were taken in the basal part of the models to check for the presence and concentration of folates. Each test product and controls are tested at a concentration of three replicates each. The studies were repeated to obtain results from two independent runs. The determination of the folate contents of the media samples was started with the analysis of the 24 h values.
The analysis of the media samples was carried out by way of a LC/MS method established at a commercial service provider. The sensitivity of the method is in the range of 1 nmol/L. Before the start of the investigations, an estimate of the feasibility or a preliminary test was carried out in order to be able to assess the suitability of the method.
In addition, the topically applied amount was reduced to 50 μL each. In addition, in the main experiment, the lower compartment was not filled with medium (contains folic acid) but with 1 mL Hank balanced salt solution (without folic acid). Following a total of 24 hours incubation with the test substances, the skin models were again incubated with Resazurin to. […] In the main trial, two independent passes were completed.
In the lower compartment, 1 mL each of HBSS was initially charged. The results shown in the figures mentioned above were determined from 100 μL aliquots of this buffer amount.
In the apical compartment, 3 μmol of folate (solutions) or 0.3 μmol of folate are supplemented (in 50 μL).

[3] = tested on: human skin; experiment: Skin penetration determined by Raman spectroscopy on forearm of a subject; assay type: in vivo; conditions: for Calcium levoleucovorin penetrated into the skin per area: surface to depth of 30 μm
Method: In a further experiment it was examined if calcium levoleucovorin is able to penetrate skin. Penetration depth was determined by way of Raman spectroscopy. The measurement device was an inverse Raman microscope model 3510 with 60× oil immersion lens and evaluation software SkinTools of the company RiverD Rotterdam and the method were 10 profiles per application, measuring time of 5 seconds per measuring point, 7 steps of 2 μm, 4 steps of 4 μm, spectral range of 400-1800 cm^−1, at a laser excitation wavelength of 785 nm. Signals were generated with the software SkinTools that contains various skin and device specific spectra. The user can add their own spectra to the library. The evaluation is carried out via the CLS procedure (least squares method). The signals are output as a fit coefficient normalized to the fit coefficient of keratin.
For a quantitative indication of the result, a calibration must be carried out with standard series (see Tab. 1 and Tab. 2). First, the sensitivity of bovine serum albumin (BSA) is determined and the mass concentration BSA in g/ml is plotted against the BSA fit coefficient. A linear regression with fixed zero gives slope S. For the active substance, the molar concentration in mmol/ml is plotted against the drug coefficient multiplied by the BSA fit coefficient. This gives the slopes SA of the active ingredient. With the slopes, a so-called quantification factor of the drug can be created (SA/S=C). Multiplied by the factor C, the coefficient of fit of the active substance becomes the quantified value with the unit mmol/g of keratin.
The application of the drug or placebo (sodium gluconate) to the skin of a subject was done as follows: 20 μL was pipetted into an allergy patch and this was then stuck onto the forearm of a subject for a period of 30, 60, 120 and 240 minutes. At the end of the application time, the allergy patch was removed. Prior to determining the Raman profiles, the treated skin area was rubbed with a dry paper towel.

[4] = tested on: primary keratinocytes of human skin; experiment: Scratch Assay (in vitro wound healing model); assay type: cell-based; conditions: for free wound surface in photographs: 0.1%
From the text: To examine the effect of different folate preparations on wound healing the in vitro model Scratch Assay was employed. This in vitro model comprises the defined injuring of a closed cell layer and the subsequent regrowth of the cells to a closed layer in the presence of the test-substance compared to appropriate controls, i.e. (untreated) cells with no test-substance present.
The experimental procedure for the Scratch Assay was as follows: The employed cells are primary keratinocytes of human skin (C-12005, Promocell, Heidelberg, Germany). […] Three different dosages were then used for the Scratch Assay. Further, cells were cultivated in growth-limiting medium in order to show a possible growth promoting effect of the test substances. For the medium used (C-20011, Promocell, Heidelberg, Germany) a growth limitation could be achieved by either the omission or dilution of epidermal growth factor (EGF) or of a complex mixture of undefined factors derived from […] BPE). Usually, growth-limiting medium was achieved by the omission of EGF. For the actual Scratch Assay keratinocytes were cultivated in appropriate cell culture plates (6-well plates, 657160, Greiner BioOne, Frickenhausen, Germany) bearing position markings. Cells were grown to a closed monolayer. Then, cells were scratched with pipette tip along the position markings, thereby generating a cell free area (scratch, injury). Cell monolayers were washed to remove partially detached cells and then covered with medium comprising the test-substances in appropriate dosages. Regrowth of the cells into the cell free area was observed over time at 0 h, 6 h and 24 h and photographically documented at these times. Analysis was done by marking and calculating the cell-free area (software ImageJ) and comparing the calculated areas at the different time point. […]
FIGS. 4 and 5 show the cell-free area of the induced scratch after 6 h or 24 h. The measured values were expressed as a percentage of the starting area of the respective treatment group. […]

Q: How did the “IC70 (concentration at which viability is reduced to 70% of the untreated control; usable dose)” value [1] turn out when “5-formyl-(6S)-tetrahydrofolic acid calcium salt [L-FTHF Ca]” was run?
A: The value was 0.13%.

Q: What about the “folic acid concentration (comparison with other skin models)” value ([2]; after 24 h) of the same molecule?
A: The value was “twice as high”.

Q: And the “methylfolate concentration in basal compartment (comparison)” value (“methylfolate concentration … (comparison)” for short) ([2]; after 24 h)?
A: Its value is “relatively high”.

Q: And the “formylfolate concentration in basal compartment” value ([2]; after 24 h, outside calibration line, absolute values uncertain)?
A: The value was 150 µmol/L.

Q: What about the “folic acid (folate) concentration in basal compartment” value ([2]; after 24 h supplementation) of the same molecule?
A: Its value is “about 200 nmol/L”.

Q: And the “concentration profile in skin over application time” value ([3]; 30 to 240 minutes application time)?
A: Its value is “tendency to increased calcium levoleucovorin concentration both in the top 5 μm and deeper layers of the skin”.

Q: What about the Amount recovered ([3]; application period 30 min) of the same molecule?
A: Its Amount recovered is 3.76 +/− 2.82 % of amount applied.

Q: What about the “Calcium levoleucovorin penetrated into the skin per area” value ([3]; application period 30 min) of the same molecule?
A: The value was 0.37 +/− 0.27 μmol/cm^2.

Q: What about the Amount recovered ([3]; application period 60 min) of the same molecule?
A: Its Amount recovered is 3.28 +/− 2.58 % of amount applied.

Q: What about the “Calcium levoleucovorin penetrated into the skin per area” value ([3]; application period 60 min) of the same molecule?
A: Its value is 0.32 +/− 0.25 μmol/cm^2.

Q: And the Amount recovered ([3]; application period 120 min)?
A: Its Amount recovered is 6.3 +/− 8.22 % of amount applied.

Q: What about the “Calcium levoleucovorin penetrated into the skin per area” value ([3]; application period 120 min) of the same molecule?
A: Its value is 0.62 +/− 0.8 μmol/cm^2.

Q: And the Amount recovered ([3]; application period 240 min, listed as Calcium levoleucovorin, calcium salt)?
A: The Amount recovered was 9.96 +/− 3.26 % of amount applied.

Q: What about the Amount recovered ([3]; application period 240 min, listed as calcium levoleucovorin, calcium salt) of the same molecule?
A: Its Amount recovered is 10 % of amount applied.

Q: What about the “Calcium levoleucovorin penetrated into the skin per area” value ([3]; application period 240 min) of the same molecule?
A: The value was 0.97 +/− 0.32 μmol/cm^2.

Q: “5-methyl-(6S)-tetrahydrofolic acid di choline salt [L-MTHF di choline]” was tested. Which “IC70 (concentration at which viability is reduced to 70% of the untreated control; usable dose)” value [1] did it give?
A: Its value is 0.14%.

Q: And the “free wound surface in photographs” value ([4]; after 6 h)?
A: Its value is “hardly any surface is overgrown”.

Q: What about the “free wound surface in photographs” value ([4]; after 24 h) of the same molecule?
A: Its value is “it becomes difficult to mark a cell-free area”.

Q: What about the “methylfolate concentration … (comparison)” value ([2]; after 4 h, compared with models supplemented with L-FTHF or folate cream) of the same molecule?
A: Its value is “significantly higher concentrations”.

Q: And the “formylfolate concentration in recipient compartment (basal)” value ([2]; after 8 h)?
A: Its value is “cannot be detected”.

Q: And the “methylfolate concentration … (comparison)” value ([2]; after 8 h)?
A: The value was “highest concentrations”.

Q: And the “formylfolate in basal compartment samples” value ([2]; after 24 h)?
A: The value was “cannot be detected”.

Q: And the “methylfolate concentration … (comparison)” value ([2]; after 24 h)?
A: Its value is “significantly higher than the highest standard”.

Q: And the “methylfolate concentration in basal compartment, maximum” value ([2]; after 24 h, peak outside calibration line, absolute value uncertain)?
A: The value was 120 µmol/L.

Q: Which results are given for N=C(N)NCCC[C@H](N)C(=O)O.N=C(N)NCCC[C@H](N)C(=O)O.Nc1nc2c(c(=O)[nH]1)N(C=O)[C@@H](CNc1ccc(C(=O)N[C@@H](CCC(=O)O)C(=O)O)cc1)CN2 [L-FTHF di arginine, 5-formyl-(6S)-tetrahydrofolic acid di L-arginine salt]?
A: IC70 (concentration at which viability is reduced to 70% of the untreated control; usable dose) [1]: 0.12%; regrowth of cells into cell-free area of scratch ([4]; after 24 h, versus standard medium and FBS control): promoted dose-dependent reversal of “healing”; methylfolate concentration in basal compartment (comparison) ([2]; after 24 h): approximately half
